Assay results taken from a compilation of properties of binary mixtures (doi:10.1007/s10953-010-9562-5).

Test: xn = mol fraction of the nth substance listed
Details: 101 kPa, x1 = 1

CC1COC(=O)O1 (stereo unspecified) + CCCC[N+]1(C)CCCC1.O=S(=O)([N-]S(=O)(=O)C(F)(F)F)C(F)(F)F
Details	electrical conductivity [S/m]	viscosity [mPa·s]
263.15 K	0.001	–
268.15 K	0.001	–
273.15 K	0.001	–
278.15 K	0.001	–
283.15 K	0.001	–
288.15 K	0.001	–
298.15 K	0.002	2.52
308.15 K	0.002	2.14
318.15 K	–	1.85
